From patent publication US6949655B2, “Acyclic piperidine derivatives” (priority 2001, dated 2005)

Tested on: rat embryo ventral mesencephalic cells
Experiment: Neuroprotection assay (NMDA-induced neuroexcitotoxic injury, 3H-dopamine uptake)
Assay type: cell-based, Sprague-Dawley rat
Settings: VM cell culture, NMDA 100-400 μM for 20 hours, high affinity 3H-dopamine uptake
Text: The neuroprotective activity of the compounds of this invention may be assayed using rat embryo ventral mesencephalic cells in culture which are subsequently exposed to the glutamate receptor agonist NMDA. This assay is described in detail in the example section.
The ventral mesencephalic region was dissected out of embryonic day 15 Sprague-Dawley rat embryos (Harlan), dissociated into single cell suspension by a combination of trypsinization and trituration (Costantini et al., Neurobiol Dis., pp. 97-106 (1998). Dissociated VM cells were plated into poly-L-ornithine-coated 96-well plates at a density of 85,000 cells/well in 100 uL of DMEM supplemented with 18% heat-inactivated horse serum, 0.24% glucose, 2 mM glutamine and 50 u/ml pernicillin/streptomycin and incubated in a 5% CO2 incubator. After one day in culture (DIV1), the medium was replaced with 100 μL of a defined medium (DMEM supplemented with 1×N2 cocktail (Gibco-BRL), 0.12% glucose, 2 mM glutamine, and 50 units/ml penicillin/streptomycin) containing DMSO or various concentrations of the compounds of this invention. On DIV5, neuroexcitotoxic injury was induced by the addition of various concentrations of the glutamate receptor agonist NMDA (100-400 μM). Cultures were incubated with the neurotoxin for 20 hours and the effects of neurophilin compounds were assessed using high affinity ^3H-dopamine uptake according to a procedure published by Park and Mytilineou [Brain Res., 599, pp. 83-97 (1992)].

Compound | EC50 [nM]
O=C(CN(Cc1ccccc1)Cc1ccccc1)N1CCC(Cc2ccccc2)CC1 [Compound 15] | > 500
C[C@@H](c1ccccc1)N(C)CC(=O)N1CCC(Cc2ccccc2)CC1 [Compound 8] | 100 to 500
C[C@@H](c1ccccc1)N(C)CC(=O)N1CCN(c2ccccc2)CC1 [Compound 4] | > 500
C[C@@H](C(=O)N1CCN(c2ccc(F)cc2)CC1)N(C)Cc1ccccc1 [Compound 9, 2-(Benzyl-methylamino)-1-[4-(4-fluorophenyl)-piperazin-1-yl]-propan-1-one] | < 100
C[C@H](c1ccccc1)N(C)CC(=O)N1CCC(Cc2ccccc2)CC1 [Compound 7] | 100 to 500
C[C@@H](C(=O)N1CCC(Cc2ccc(F)cc2)CC1)N(C)Cc1ccccc1 [Compound 11, 2-(Benzyl-methylamino)-1-[4-(4-fluorobenzyl)-piperidin-1-yl]-propan-1-one] | < 100
CN(C)CC(=O)N1CCC(Cc2ccccc2)CC1 [Compound 1] | > 500
CCN(CC(=O)N1CCN(c2ccccc2)CC1)Cc1ccccc1 [Compound 2] | > 500
C[C@@H](c1ccccc1)N(C)CC(=O)N1CCN(C(c2ccc(F)cc2)c2ccc(F)cc2)CC1 [Compound 18] | > 500
O=C(CN(Cc1ccccc1)Cc1ccccc1)N1CCN(c2ccccc2)CC1 [Compound 14] | > 500
CN(C)CC(=O)N1CCN(C(c2ccc(F)cc2)c2ccc(F)cc2)CC1 [Compound 12] | > 500
O=C(CN(Cc1ccccc1)Cc1ccccc1)N1CCN(C(c2ccc(F)cc2)c2ccc(F)cc2)CC1 [Compound 20] | > 500
CCN(CC(=O)N1CCN(C(c2ccc(F)cc2)c2ccc(F)cc2)CC1)Cc1ccccc1 [Compound 16] | > 500
C[C@@H](C(=O)N1CCN(C(c2ccc(F)cc2)c2ccc(F)cc2)CC1)N(C)Cc1ccccc1 [Compound 19, 2-(Benzyl-methylamino)-1-{4-[bis-4-(4-fluorophenyl)-methyl]-piperazin-1-yl]-propan-1-one] | 100 to 500
CN(C)C1(C(=O)N2CCC(Cc3ccccc3)CC2)CCc2ccccc21 (centres unmarked) [Compound 10] | 100 to 500
C[C@@H](C(=O)N1CCC(Cc2ccccc2)CC1)N(C)Cc1ccccc1 [Compound 5] | < 100
CCC(C)[C@@H](C(=O)N1CCC(Cc2ccccc2)CC1)N(C)Cc1ccccc1 (some centres unmarked) [Compound 13] | > 500
CCN(CC(=O)N1CCC(Cc2ccccc2)CC1)Cc1ccccc1 [Compound 6] | 100 to 500
C[C@H](c1ccccc1)N(C)CC(=O)N1CCN(C(c2ccc(F)cc2)c2ccc(F)cc2)CC1 [Compound 17] | > 500
C[C@H](c1ccccc1)N(C)CC(=O)N1CCN(c2ccccc2)CC1 [Compound 3] | > 500
